The results in this text go back to US10785978B2, “Control and repellency of biting flies, house flies, ticks, ants, fleas, biting midges, cockroaches, spiders and stink bugs” (priority 2012, dated 2020).

Common to all, as to type: in vivo
Series [1] relates to sand flies P. papatasi. Kind of series: Sand fly bite test on treated human skin with K&D module. Particulars: for percent biting, Treatment level 5%: 5% compound in isopropyl alcohol on human skin; for sand flies repelled: at 5%. On the procedure:
Control against sand flies was determined by the following protocol as generally described in J. Med. Entomol. 43 (6), 1248-1252 (2006). Volunteers wearing short pants were seated. Using a skin-marking template and a washable-ink marker, skin areas represented by 3- by 4-cm floor opening of six cells of a K&D module were outlined on the outer, top and inner thigh position of each leg of the volunteers. The six treated cell rectangles each represented a random block, and each volunteer had three blocks on each of two thighs. All treatments against the sand flies P. papatasi, were pipetted onto a 4- by 5-cm rectangular area (so the area of skin covered by a treatment exceeded the template marks by 0.5 cm in every direction) of the subjects' skin with 55 ul of isopropyl alcohol/treatment containing 10% or 5% compound/ul isopropyl alcohol. Treating a slightly larger area ensured that the areas beneath each K&D module contained only treated skin. Skin treated with isopropyl alcohol alone served as control. In all tests adjacent cells of the K&D module were supplied with ten sand flies. The sand fly charged K&D module was positioned over the treated skin areas and the trap doors of the K&D module above the areas were opened. After a five minute skin exposure the trap doors were closed. The number of sand fly bites was recorded for each cell. The percent biting is the percent compared to the biting for the control which was taken as 100%.

Series [2] concerns stable flies. Description: Stable fly probing on treated warmed blood-filled membranes. Particulars: for Probes at 7% test compound: 7% in isopropyl alcohol on membrane; for Probes at 7% test compound / Probes at 15% test compound: twenty minutes, percent of control probes taken as 100%; for Probes at 15% test compound: 15% in isopropyl alcohol on membrane; for repellency compared with DEET: at the same concentrations (7% and 15%). On the procedure:
Five replicates of 100 mixed-sex stable flies each were placed in screened cages. The cages were placed in such a way that the stable flies had access to five warmed, blood-filled membrane walls. The membranes were treated with methyl dihydrojasmonate, gamma-dodecalactone, methyl apritone, or DEET® all at 7% and at 15% in isopropyl alcohol, or isopropyl alcohol as a control. There were five replicates tested with a positional rotation of the repellent at each replicate. Fresh batches of stable flies were used for each replicate. Thus each test sample was tested on each of the five wells, which allowed any positional bias to be eliminated. The number of stable flies probing each well was recorded at two minute intervals for twenty minutes. The total number of probes on each well were tallied at the end of the twenty minute observation period and the average percentage repellency was calculated for each compound. An analysis of variance was conducted to compare the average number of probes on each treatment membrane. The number of probes for the control was taken as the 100% baseline and the percentage for the test compounds is the percent for the number of probes for the test compound compared to the number of control probes.

Series [3] concerns house flies. Kind of series: House fly repellency on treated filter paper food trays in cages. Particulars: 5% in isopropyl alcohol; over 6 hours. On the procedure:
The bottom of each cage was lined with brown craft paper and divided into 4 equal quadrants. Each quadrant housed a makeshift filter paper food tray. Two of the four filter papers were treated with repellent and two treated with isopropanol. Control cages contained filter papers that were treated with 4 filter papers of isopropanol only. The number of flies resting on filter paper per quadrant was recorded every 30 minutes for a total of 6 hours. Cages were rotated to eliminate positional bias. […] Each of the test samples were diluted in isopropyl alcohol.

Series [4] concerns Brown Dog Ticks, Rhipicephalus sanguineus. Particulars: in vivo. The source says: The following protocol was employed to test compounds of this invention for toxicity (mortality) against ticks. There were 5 replicates of 5 dog ticks for each treatment. […] Filter paper strips were laid on a sheet of aluminum foil and enough of each of the test sample was applied to thoroughly saturate the paper. The paper was then rolled and placed inside a glass shell vial as to line the sides of the vial. A small paper disc, also saturated with the test sample, was then placed at the bottom of the vial. Brown Dog Ticks, Rhipicephalus sanguineus, were then introduced into the vials which were covered with aluminum foil, the inside of which was painted with some of the test sample. The ticks remained in the vials, constantly exposed to the test samples, for the duration of the test. A small hole was poked through the foil for ventilation. Each control replicate was subjected to the same procedures outlined above, except that they were not treated. The controls were placed in the same area as the test replicates for the duration of the test. Mortality observations were made at 24 hours. Ticks were classified as alive (able to move normally), moribund (those classified as moribund will show some movement, but will not be able to crawl in a coordinated manner, or will be unable to right themselves if placed on their backs), or dead (no movement after physical stimuli). All dead ticks were confirmed by probing or agitation to make sure that they are unable to move; any that show movement visible to the naked eye were recorded as moribund. At 24 hours the tick mortality was 0% for the control, 100% for γ-dodecalactone, 100% for methyl apritone and 76% for methyl dihydrojasmonate.

Series [5] deals with Pharaoh ants. Description: Pharaoh ant behaviour at treated-untreated interface on poster board. Particulars: 50% in acetone; 5 minutes after release. On the procedure:
Pharaoh ants were tested using the following protocol. The side of a 17″×23″ rectangular sheet of poster board was sprayed with the test sample or acetone, except for a region within a 6″ circle. The treated poster board was allowed to dry. Five worker ants were placed in the center of the 6″ untreated circle and allowed to wander outside the circle onto the treated surface. The behavior of the ants at the treated-untreated interface was recorded for 5 minutes after release. Test compounds were diluted in acetone.

Series [6] concerns German cockroaches. Kind of series: German cockroach repellency, choice of food stations in arena. Particulars: 50% in acetone; at 4 hours. On the procedure:
The efficacy of compounds of this invention to control or repel German cockroaches was illustrated using the following protocol. One food pellet each was placed on a paper square (station) treated with one of the repellent materials. Materials were diluted to 50% in acetone and a straight acetone station was also used. Both stations were placed on the same side of the arena. Cockroaches were starved for 2 days and then released into the arena. They were given a choice to feed on either food pellet. A control arena with an acetone treated station and an untreated station was also used. The distribution of cockroaches within the arena was recorded at 30 minute intervals over 4 hours. Repellency at 4 hours was calculated by the number of cockroaches on the untreated station vs. the total number of cockroaches on the stations.

Setting [7] is: five minute exposure, percent of control biting taken as 100%.

For `CCC(C)=CCCC(C)=CCC1CCCC1=O` (stereo not shown) [Methyl apritone, methyl apritone], the “percent biting, Treatment level 5%” value in series [1] (setting [7]) came out at 9.9%^. Also, the “percent biting, Treatment level-10%” value in series [1] (10% compound in isopropyl alcohol on human skin, five minute exposure, percent of control biting taken as 100%) is reported as 0%. In series [1], this compound yielded a sand flies repelled of 90.1%. In addition, in series [2], the “Probes at 7% test compound” value came out at 28.8%, the “Probes at 15% test compound” value is listed as 7.4% and the “repellency compared with DEET” value was “repelled better than DEET®”. The “Overall % Repellency” value in series [3] is 45%. Moreover, in series [4], the “24 hr mortality (%)” value was found to be 100% and the “tick mortality at 24 hours” value is given as 100%. For the same compound, in series [5], the “% crossed without stopping” value was determined as 66%; the “% slowed, but crossed” value stood at 2%; the “% stopped at interface” value is listed as 66%. The “% Repellency 4 hr” value in series [6] worked out at 100%.

Regarding `CCCCCC1C(=O)CCC1CC(=O)OC` (stereo not shown) [Methyl dihydrojasmonate, methyl dihydrojasmonate], the “percent biting, Treatment level 5%” value in series [1] (setting [7]) came to 0%. Moreover, the sand flies repelled in series [1] was 100%. In series [2], the “Probes at 7% test compound” value turned out to be 4.5%, the “Probes at 15% test compound” value is on record as 3.2% and the “repellency compared with DEET” value is reported as “repelled better than DEET®”. For the same compound, the “Overall % Repellency” value in series [3] is recorded as 52%. Also, in series [4], the “24 hr mortality (%)” value was 76% and the “tick mortality at 24 hours” value is recorded as 76%. For the same compound, in series [5], the “% crossed without stopping” value is 50%; the “% slowed, but crossed” value stood at 20%; the “% stopped at interface” value was found to be 32%. Moreover, in series [6], the “% Repellency 4 hr” value was found to be 72.2%.
